From publication PMC10455244, “Alpha-Mangostin: A Potent Inhibitor of TRPV3 and Pro-Inflammatory Cytokine Secretion in Keratinocytes” (International Journal of Molecular Sciences, 2023)

Target: T1, TRPV3 (Homo sapiens, UniProt Q8NET8)
T1 sequence (Q8NET8 1-790): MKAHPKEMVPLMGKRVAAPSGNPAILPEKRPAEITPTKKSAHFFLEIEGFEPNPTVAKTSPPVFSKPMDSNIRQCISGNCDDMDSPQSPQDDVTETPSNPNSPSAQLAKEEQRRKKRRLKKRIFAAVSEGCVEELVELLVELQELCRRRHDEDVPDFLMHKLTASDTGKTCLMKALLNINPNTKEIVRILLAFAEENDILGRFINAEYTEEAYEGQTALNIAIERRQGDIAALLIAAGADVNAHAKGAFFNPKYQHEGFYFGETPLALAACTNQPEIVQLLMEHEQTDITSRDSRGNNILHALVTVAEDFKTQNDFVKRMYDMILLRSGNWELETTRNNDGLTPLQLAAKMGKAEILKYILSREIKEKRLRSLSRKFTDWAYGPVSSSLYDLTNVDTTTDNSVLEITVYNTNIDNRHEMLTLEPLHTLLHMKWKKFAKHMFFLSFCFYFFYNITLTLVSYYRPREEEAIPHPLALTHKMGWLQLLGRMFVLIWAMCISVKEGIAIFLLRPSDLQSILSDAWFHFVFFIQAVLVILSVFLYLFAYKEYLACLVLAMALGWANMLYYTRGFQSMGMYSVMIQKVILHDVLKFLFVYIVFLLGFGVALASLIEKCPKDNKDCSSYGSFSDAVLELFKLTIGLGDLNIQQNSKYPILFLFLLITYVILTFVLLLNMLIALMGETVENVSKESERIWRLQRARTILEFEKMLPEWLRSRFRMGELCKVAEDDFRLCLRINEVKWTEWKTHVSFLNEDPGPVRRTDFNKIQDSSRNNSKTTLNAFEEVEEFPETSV
Test: Fura-2 calcium imaging, carvacrol-induced Ca2+ increase in hTRPV3-overexpressing HEK 293T cells
Type: cell-based
Design: expressed in transfected cells
Details: 300 µM carvacrol; for ∆(F340/F380): control 0.424 ± 0.032
Procedure: Since the TRPV3-mediated calcium influx is reported to contribute to proper skin function, we investigated whether alpha-mangostin inhibits the intracellular calcium increase induced by carvacrol in hTRPV3-overexpressing HEK 293T cells and keratinocytes. […] In hTRPV3-overexpressing HEK 293T cells, ∆(F340/F380) decreased by approximately 25% and 70% upon exposure to 0.3 µM and 3 µM alpha-mangostin, respectively (Figure 3A, 0.424 ± 0.032 vs. 0.316 ± 0.030 and 0.144 ± 0.006, respectively).
Figure 3 Alpha-mangostin (α-MG) inhibited TRPV3-mediated intracellular calcium increase. Cells were perfused with solutions containing 0.3 µM, 3 µM alpha-mangostin or 10 µM 74a before the addition of 300 µM carvacrol (red, green, and blue lines, respectively). Cells only perfused with normal Tyrode (NT) solution in the presence (black line) or absence (purple line) of 300 µM carvacrol were employed as the control. (A) Alpha-mangostin inhibited TRPV3-mediated intracellular calcium increase in response to carvacrol in TRPV3-overexpressing HEK 293T cells. […] The bar graph on the bottom summarizes the change in the intracellular calcium rise inhibited by alpha-mangostin. (B) Alpha-mangostin inhibited TRPV3-mediated intracellular calcium increase in response to carvacrol in normal human epidermal keratinocytes (NHEK). […] The bar graph on the bottom summarizes the change in the intracellular calcium rise inhibited by alpha-mangostin. Data are presented as means ± SEM. ** p < 0.01, *** p < 0.001, **** p < 0.0001.
Fura-2 AM (Thermo Fisher Scientific) was utilized as a fluorescent indicator to measure calcium signal, as described previously. Fura-2 acetoxymethyl ester (Fura-2 AM) is a widely used fluorescent calcium indicator. After crossing the cell membrane and entering the cytosol, Fura-2 AM is cleaved into its activated form, Fura-2 [49]. After binding to the cytosolic free Ca^2+, the peak excitation of Fura-2 shifts from 380 nm (Ca^2+-free state) to 340 nm (Ca^2+-bound state), while the peak emission remains unchanged at around 510 nm. To measure the cytosolic Ca^2+ level, a sequential excitation of Fura-2 is performed at 340 nm and 380 nm; then, the emission signals resulting from each excitation wavelength are measured and the ratio of these signals is calculated. […] Samples were excited using a wavelength of 380 nm for 20 ms, followed by 340 nm for 100 ms, and fluorescence at 510 nm was recorded. Recorded data were then analyzed using NIS-Element AR Version 5.00.00 (Nikon Instruments, Melville, NY, USA).
The change in the fluorescence ratio when the cells were excited at 340 nm and 380 nm (ΔF340/380) during the measurements was calculated by subtracting the ratio obtained at the beginning of the experiment from each subsequent ratio obtained at different time points. […]

## COc1c(O)cc2oc3cc(O)c(CC=C(C)C)c(O)c3c(=O)c2c1CC=C(C)C [Alpha-mangostin]
0.3 µM
  Decrease of ∆(F340/F380): approximately 25%
  ∆(F340/F380): 0.316 ± 0.030
3 µM
  Decrease of ∆(F340/F380): ~70%
  ∆(F340/F380): 0.144 ± 0.006
